From patent publication US5350864A, “Aminoalkylcarbamyl derivatives of forskolin as intermediates for the synthesis of useful forskolin derivatives” (The United States of America as represented by the …, priority 1990, dated 1994)
Entries after “also recorded” stand apart in the source; their conditions may differ. Like-named read-outs stand apart in the source and are kept apart here.

Key:
[1] = Water solubility; format: physicochemical; conditions: relative to forskolin
[2] = Stability to heating in base; format: physicochemical; conditions: heating in 0.1N KOH in methanol, two hours, 60° C.
Procedure: The 7-aminoethylcarbamate can be synthesized using the 1,9-dimethylformamide acetal of 7-desacetylforskolin as starting material (see synthetic scheme of FIG. 2). The selective reactivity of carbonyldiimidazole (CDI) with the equatorial 7β-hydroxyl group is exploited to form the 7-acylimidazole intermediate. The reaction of the 7-acylimidazole intermediate with ethylenediamine produces the 7-aminoethylcarbamate of forskolin (see 3 in FIG. 1 and Example 1). The same procedure is carried out to produce 7β-aminobutylcarbamate (5), 7β-aminohexylcarbamate (6), and the 7β-aminoheptylcarbamate (7) of forskolin. The 7β-aminoalkylcarbamates of forskolin are very stable compounds. The 7β-aminoethylcarbamate of forskolin is stable to heating in 0.1N KOH in methanol for two hours at 60° C.

[3] = system: bovine brain adenylate cyclase; assay: Activation of bovine brain adenylate cyclase; format: biochemical; conditions: relative to forskolin
[4] = biological target: T1, glucose transporter (Homo sapiens, UniProt P11166); assay: Filtration binding assay, ^125 I-labelled derivative 8 (7-^125 I-HPP-Fsk) to human red blood cell membranes; conditions: for inhibition of 7-^125 I-HPP-Fsk binding: human red blood cell membranes
T1 construct: Crude membranes from human red blood cells; from tissue; host or cells: human red blood cells, membranes
T1 sequence (P11166 1-492): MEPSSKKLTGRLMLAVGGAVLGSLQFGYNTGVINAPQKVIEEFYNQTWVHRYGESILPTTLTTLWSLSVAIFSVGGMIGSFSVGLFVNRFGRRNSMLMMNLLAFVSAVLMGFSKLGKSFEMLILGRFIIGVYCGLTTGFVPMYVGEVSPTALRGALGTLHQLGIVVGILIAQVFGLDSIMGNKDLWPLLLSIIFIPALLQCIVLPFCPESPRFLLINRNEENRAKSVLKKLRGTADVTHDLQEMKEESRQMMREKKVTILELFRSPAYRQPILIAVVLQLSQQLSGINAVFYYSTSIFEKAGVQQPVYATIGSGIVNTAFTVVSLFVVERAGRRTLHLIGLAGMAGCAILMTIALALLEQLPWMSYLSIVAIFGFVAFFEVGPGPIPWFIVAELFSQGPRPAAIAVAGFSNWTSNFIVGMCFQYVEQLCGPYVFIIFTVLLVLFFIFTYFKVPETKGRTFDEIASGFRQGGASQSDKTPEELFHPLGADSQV
Procedure: Binding of 7-^125 IHPP-Fsk to Membranes--Crude membranes from human red blood cells were incubated for 60 minutes at 20° C. with 20,000 cpm of 7-^125 IHPP-Fsk. […] The incubations were carried out at 20° C. for 60 minutes in 12×75 glass test tubes in a total volume of 0.4 mL 50 mM Tris-HCl buffer, pH 7.4. The assay was terminated by the addition of 4 mL of cold Tris-HCl buffer to the tubes at rapid filtration over Whatman GF/C filters using a Brandel cell harvester. The assay was terminated as described above and the filters counted in a gamma counter. The nonspecific binding was calculated as the amount of label not displaced by 20 μM forskolin.

[5] = biological target: T2, P-glycoprotein (Homo sapiens, UniProt P08183); assay: Photolabelling of membranes from human ovarian carcinoma cell line overexpressing P-glycoprotein
T2 sequence (P08183 whole entry): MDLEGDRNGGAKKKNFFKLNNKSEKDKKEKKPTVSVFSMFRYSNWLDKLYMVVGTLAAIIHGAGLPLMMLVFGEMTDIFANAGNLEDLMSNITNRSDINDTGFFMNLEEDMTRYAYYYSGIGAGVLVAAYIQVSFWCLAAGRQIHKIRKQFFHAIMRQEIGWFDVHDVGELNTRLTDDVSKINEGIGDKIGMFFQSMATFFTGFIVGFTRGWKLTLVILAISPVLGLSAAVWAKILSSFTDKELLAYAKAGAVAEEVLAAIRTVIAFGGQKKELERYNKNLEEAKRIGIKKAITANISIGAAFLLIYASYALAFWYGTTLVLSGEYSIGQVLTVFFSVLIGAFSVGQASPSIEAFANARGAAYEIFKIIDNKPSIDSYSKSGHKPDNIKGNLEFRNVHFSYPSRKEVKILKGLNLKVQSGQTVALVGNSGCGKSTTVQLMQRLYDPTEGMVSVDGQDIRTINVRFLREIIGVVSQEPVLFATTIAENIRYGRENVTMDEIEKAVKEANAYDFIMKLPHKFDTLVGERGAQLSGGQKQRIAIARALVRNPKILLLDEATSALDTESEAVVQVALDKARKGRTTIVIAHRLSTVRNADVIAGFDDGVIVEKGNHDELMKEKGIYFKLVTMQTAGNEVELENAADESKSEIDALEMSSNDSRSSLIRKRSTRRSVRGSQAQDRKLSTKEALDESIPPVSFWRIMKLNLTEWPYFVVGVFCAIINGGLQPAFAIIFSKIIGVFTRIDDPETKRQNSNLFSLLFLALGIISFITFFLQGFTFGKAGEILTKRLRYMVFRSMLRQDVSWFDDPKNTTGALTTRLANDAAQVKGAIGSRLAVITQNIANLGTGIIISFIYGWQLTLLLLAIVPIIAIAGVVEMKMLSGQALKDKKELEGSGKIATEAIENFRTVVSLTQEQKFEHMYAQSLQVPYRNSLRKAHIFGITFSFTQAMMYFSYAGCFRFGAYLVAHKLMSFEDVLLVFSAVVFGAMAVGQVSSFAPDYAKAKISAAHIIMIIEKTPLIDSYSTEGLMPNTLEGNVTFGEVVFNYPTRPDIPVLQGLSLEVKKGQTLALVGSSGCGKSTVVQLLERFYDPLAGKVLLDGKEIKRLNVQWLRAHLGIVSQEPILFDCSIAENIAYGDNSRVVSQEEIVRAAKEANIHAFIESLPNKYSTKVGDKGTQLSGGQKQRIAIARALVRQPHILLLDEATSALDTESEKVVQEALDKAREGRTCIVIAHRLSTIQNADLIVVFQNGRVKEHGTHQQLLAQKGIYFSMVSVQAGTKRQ

[6] = system: adenylate cyclase; assay: Filtration binding assay, ^125 I-labelled derivative 19 (6-^125 I-HPP-Fsk) to bovine brain membranes; conditions: for inhibition of 6-^125 I-HPP-Fsk binding: 60 min
Text: (§1) Derivative 19 (6-^125 I-HPP-Fsk) was used to develop a binding assay for adenylate cyclase (Example 4). […] Therefore, a filtration assay can be used to separate the bound from free ligand and determine the amount of high affinity binding. […] Analogs of forskolin that activate adenylate cyclase inhibit the binding of 6-^125 I-HPP-Fsk to membranes. The ability of an agent to inhibit 6-^125 I-HPP-Fsk binding to membranes is therefore indicative of its ability to stimulate adenylate cyclase.
Binding of 6-^125 I-HPP-Fsk to Membranes--Crude membranes from bovine brain were incubated for 60 minutes at […] 20° C. with 20,000 cpm of 6-^125 I-HPP-Fsk. Binding equilibrium was reached by 45 minutes and was constant for at least 2 hours (data not shown). The incubations were carried out at 20° C. for 60 minutes in 12×75 glass test tubes in a total volume of 0.4 mL […] Tris-HCl buffer, pH 7.4. The membranes (0.40 mg/tube) were incubated in the presence of 5 mM MgCl2 and 10 mM NaF. The assay was terminated by the addition of 5 mL of cold Tris-HCl buffer to the tubes and rapid filtration over Whatman GF/C filters using a Brandel cell harvester. The assay was terminated as described above and the filters counted in a gamma counter. The nonspecific binding was calculated as the amount of label not displaced by 20 uM forskolin. The non specific binding was about 20% of the total bound.

[7] = system: adenylate cyclase; assay: Binding of 6-^125 I-HPP-Fsk to membranes from human platelets
Text: as §1

[8] = system: cancer cells; conditions: certain cancer cells; literature; cited from earlier work
[9] = system: adenylate cyclase; conditions: literature, cited from earlier work
[10] = system: P-glycoprotein; assay: Binding to the P-glycoprotein
[11] = system: adenylate cyclase; assay: Photolabelling of partially purified bovine brain adenylate cyclase, SDS gel electrophoresis; format: binding
Procedure: (§2) Derivative 20 (6-AIPPS-Fsk) is incubated with partially purified preparations of bovine brain adenylate cyclase, photolyzed, and then the radioactive proteins are analyzed by SDS gel electrophoresis. […] 6-AIPPS-Fsk can also label adenylate cyclase in crude membranes. 6-AIPPS-Fsk is incubated with bovine brain membranes, photolyzed, and the radioactive proteins are analyzed by SDS gel electrophoresis.

[12] = system: glucose transporter; conditions: cited from earlier work
[13] = literature; cited from earlier work
[14] = system: glucose transporter; assay: Binding of 7-^125 I-HPP-Fsk to rat muscle
Text: (§3) 7-^125 I-HPP-Fsk also binds with high affinity to other tissues including bovine brain, rat heart, rat muscle, and human platelets. The binding of 7-^125 I-HPP-Fsk to these tissues is inhibited by D-glucose and cytochalasin B. Therefore, 7-^125 I-HPP-Fsk binds with high affinity to the glucose transporter in diverse tissues.

[15] = system: glucose transporter; assay: Binding of 7-^125 I-HPP-Fsk to bovine brain
Text: as §3

[16] = biological target: T1, glucose transporter; assay: Photolabelling of human red blood cell membranes, SDS gel electrophoresis; format: binding
Procedure: Derivative 9 (7-AIPPS-Fsk) is incubated with human red blood cell membranes, photolyzed, and then the radioactive proteins were analyzed by SDS gel electrophoresis.

[17] = biological target: glucose transporter; conditions: read-out: affinity of cytochalasin B; cited from earlier work
[18] = biological target: T3, glucose transporter (Homo sapiens, UniProt P11169); assay: Binding of 7-^125 I-HPP-Fsk to human platelets
T3 construct: other tissues including bovine brain, rat heart, rat muscle, and human platelets; from tissue; host or cells: human platelets
T3 sequence (P11169 1-496): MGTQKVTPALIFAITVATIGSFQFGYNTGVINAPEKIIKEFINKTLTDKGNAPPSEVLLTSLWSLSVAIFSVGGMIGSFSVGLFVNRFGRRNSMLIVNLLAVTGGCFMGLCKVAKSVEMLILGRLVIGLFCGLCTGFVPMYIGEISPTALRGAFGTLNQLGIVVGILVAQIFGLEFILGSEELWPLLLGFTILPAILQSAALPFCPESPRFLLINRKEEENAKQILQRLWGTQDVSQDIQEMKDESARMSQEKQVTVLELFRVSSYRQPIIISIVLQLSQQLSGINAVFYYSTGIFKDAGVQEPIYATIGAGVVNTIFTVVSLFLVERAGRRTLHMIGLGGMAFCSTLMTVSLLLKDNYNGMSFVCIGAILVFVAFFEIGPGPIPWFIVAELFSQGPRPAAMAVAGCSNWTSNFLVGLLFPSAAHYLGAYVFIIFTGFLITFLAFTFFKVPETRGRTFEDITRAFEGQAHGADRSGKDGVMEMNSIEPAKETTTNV
Text: as §3

[19] = system: glucose transporter; assay: Binding of 7-^125 I-HPP-Fsk to rat heart
Text: as §3

[20] = biological target: T2, P-glycoprotein
[21] = system: adenylate cyclase; assay: Photolabelling of bovine brain membranes, SDS gel electrophoresis; format: binding
Procedure: as §2

Structure (SMILES): C=C[C@@]1(C)CC(=O)[C@]2(O)[C@@]3(C)[C@@H](O)CCC(C)(C)[C@@H]3[C@H](O)[C@H](OC(=O)NCCN)[C@@]2(C)O1 [Compound 3, 7-aminoethyl-carbamylforskolin]
- water solubility [1]: enhanced water solubility
- stability [2]: stable
- extent of stimulation of adenylate cyclase [3]: stimulate adenylate cyclase to a greater extent than forskolin
- potency relative to 6-aminoethylcarbamyl derivative 4 at inhibiting binding of 7-^125 I-HPP-Fsk ([4]; erythrocyte membranes): about 30 fold

Structure (SMILES): COc1cccc2c1C(=O)c1c(O)c3c(c(O)c1C2=O)C[C@@](O)(C(=O)CO)C[C@@H]3O[C@H]1C[C@H](N)[C@H](O)[C@H](C)O1 [adriamycin]
- inhibition of labelling by 6-AIPPS-Fsk [5]: inhibited

Structure (SMILES): C=C[C@@]1(C)CC(=O)[C@]2(O)[C@@]3(C)[C@@H](O)CCC(C)(C)[C@@H]3[C@H](OC(=O)NCCNC(=O)CCc3ccc(O)c([125I])c3)[C@H](OC(C)=O)[C@@]2(C)O1 [Derivative 19]
- time binding was constant ([6]; 20° C.): at least 2 hours
- time to binding equilibrium ([6]; 20° C.): ≤ 45 min
- selectivity of 6-^125 I-HPP-Fsk binding ([6]; adenylate cyclase versus glucose transporter, listed as 6-^125 I-HPP-Fsk): not binding with high affinity to the glucose transporter in brain tissue; also recorded: specific for adenylate cyclase
- binding affinity ([6]; bovine brain membranes): high affinity
- Kd ([6]; membranes from bovine brain): ~25 nM
- Kd [7]: ~25 nM

Structure (SMILES): C=C[C@@]1(C)CC(=O)[C@]2(O)[C@@]3(C)[C@@H](O)CCC(C)(C)[C@@H]3[C@H](O)[C@H](OC(C)=O)[C@@]2(C)O1 [Compound 1, forskolin]
- sensitization to cytotoxic effects of drugs [8]: can sensitize certain cancer cells to the cytotoxic effects of drugs
- activation of adenylate cyclase [9]: activate the enzyme adenylate cyclase and increase intracellular cyclic AMP
- binding to P-glycoprotein [10]: bind to the P-glycoprotein
- inhibition of labelling by 6-AIPPS-Fsk [11]: inhibited
- binding affinity / selectivity [4]: binds to the glucose transporter in human red blood cells
- inhibition of 7-^125 I-HPP-Fsk binding [4]: inhibited
- inhibition of 6-^125 I-HPP-Fsk binding ([6]; bovine brain membranes, 20° C.): inhibited
- potency at activating adenylate cyclase versus inhibiting glucose transport ([12]; relative to adenylate cyclase activation): equipotent
- cardiotonic effects [13]: marked cardiotonic effects

Structure (SMILES): C=C1C(C)C2C(Cc3ccccc3)NC(=O)C23OC(=O)/C=C/C(O)CCCC(C)C/C=C/C3C1O (stereo not drawn) [cytochalasin B]
- inhibition of 7-^125 I-HPP-Fsk binding [14]: inhibited
- inhibition of 7-^125 I-HPP-Fsk binding [15]: inhibited
- inhibition of labelling by 7-AIPPS-Fsk [16]: inhibited
- Kd [17]: ~1000 nM
- inhibition of 7-^125 I-HPP-Fsk binding [18]: inhibited
- inhibition of 7-^125 I-HPP-Fsk binding [4]: inhibition of binding; also recorded: inhibited
- inhibition of 7-^125 I-HPP-Fsk binding ([4]; listed as cytochlasin B): inhibited
- inhibition of 6-^125 I-HPP-Fsk binding ([6]; bovine brain membranes, 20° C.): not inhibited
- inhibition of 7-^125 I-HPP-Fsk binding [19]: inhibited

Structure (SMILES): C=C[C@@]1(C)CC(=O)[C@@H]2[C@@]3(C)CCCC(C)(C)[C@@H]3[C@H](O)[C@H](OC(C)=O)[C@@]2(C)O1 [1,9-dideoxyforskolin]
- sensitization to cytotoxic effects of drugs [8]: can sensitize certain cancer cells to the cytotoxic effects of drugs
- inhibition of labelling by 6-AIPPS-Fsk [20]: more potent at inhibiting the labelling by 6-AIPPS-Fsk than forskolin
- activation of adenylate cyclase [9]: inability
- activation of adenylate cyclase ([9]; listed as 1,9-Dideoxyforskolin): does not activate adenylate cyclase; also recorded: not active at adenylate cyclase
- inhibition of 6-^125 I-HPP-Fsk binding ([6]; bovine brain membranes, 20° C.): not by 1,9-dideoxyforskolin
- inhibition of labelling by 6-AIPPS-Fsk [21]: not inhibited
- inhibition of glucose transport ([12]; adipocyte membranes, literature): inhibit glucose transport in adipocyte membranes
